# Source: PMC11004178, “LDL receptor-related protein 5 selectively transports unesterified polyunsaturated fatty acids to intracellular compartments” (Nature Communications, 2024)
# Target: T1, mTORC1 (mTOR kinase complex) (Homo sapiens, UniProt P42345)
# T1 construct: mTORC1 complex immunoprecipitated from HEK293T cells expressing HA-tagged Raptor; with Raptor (HA-tagged; mTORC1 complex)
# Assay: in vitro kinase assay, immunoprecipitated mTORC1, GST-4EBP1 substrate, […] EPA (single concentration)
# Assay type: biochemical
structure (smiles),measurement,value
"CC/C=C\C/C=C\C/C=C\C/C=C\C/C=C\CCCC(=O)O [EPA, eicosapentaenoic acid]","in vitro kinase assay, immunoprecipitated mTORC1, GST-4EBP1 substrate, 100 μM EP","The addition of EPA, but not EPA-EE, caused significant inhibition of 4EBP1 phosphorylation by immunoprecipitated mTORC1"
